From PMC6149971, “In Vivo and In Vitro Activities and ADME-Tox Profile of a Quinolizidine-Modified 4-Aminoquinoline: A Potent Anti-P. falciparum and Anti-P. vivax Blood-Stage Antimalarial” (Molecules : A Journal of Synthetic Chemistry and Natural …, 2017)
Values joined by “and” are separate entries in the source; they are usually repeats but may differ in a detail not shown here. Equal values may be shown once.

Legend:
[1] = Microsome stability and metabolism studies, rat; type: in vitro ADME; set-up: key: +: Metabolic Products Detected In Vitro and In Vivo; ND: Not detectable; settings: (−)-AM1 1 μM, at 30 min
Procedure: Samples from the metabolic stability and metabolism studies were analyzed under the following conditions: UPLC interfaced with a Premiere XE triple Quadrupole Waters for stability studies, and Bruker Daltonics Ion Trap HCT Ultra for metabolic studies. A gradient from 2% to 100% (Water, MeOH, 5 mM Ammonium Acetate) over 2 min (stability) or 12 min (metabolism) in a C18 BEH (dimensions 1 by 50 mm for stability and 2.1 by 100 mm for metabolism, 1.7 µm column, 45 °C temperature, flow rate 0.5 mL/min) was used. For stability studies, the detection was performed in MRM (ESI positive, Q1/Q3 330.16/152.00, Cone Voltage 45 V; Extractor 5 V; Capillary 3.4 kV), while for metabolism studies, analysis was performed in Auto MS/MS mode (ESI positive; Capillary 109 V; Dry Temp 350 °C; Nebulizer 30 psi; Dry gas 10 L/min; HV capillary 500 V; Mass Accu time 500 µs; Mass range MS scan 100–600 amu, MS/MS 50–450 amu).
For stability and metabolism studies, test compounds were dissolved in DMSO, diluted at the final concentration of 1 µM, and pre-incubated in duplicate for 10 min at 37 °C in potassium phosphate buffer, pH 7.4, 3 mM MgCl2, with rat, mouse, and human hepatic microsomes (Xenotech Europe, Pfungstadt, Germany) at the final concentration of 0.5 mg/mL. The reaction was then started by adding the cofactor mixture of NADP, Glc6P, and G6P-DH, in the presence of UDPGA 1 mM in human microsomes to promote glucuronide formation. Acetonitrile (with verapamil as internal standard) was added to the samples at the times time 0 and 30 min to stop the reaction. Samples were then centrifuged and the supernatants analysed and quantified by LC-MS/MS. Reference compounds of known metabolic stability, 7-ethoxycoumarin (7-EC) and propranolol, were used as controls.
The percentage of the area of test compounds remaining after 30 min incubation was calculated in respect to the area of compounds at time = 0 min. […] Samples were re-analyzed by acquiring the daughter scan of the potential metabolites found during the full scan acquisition.

[2] = system: P. berghei ANKA transmission stages in Anopheles stephensi; experiment: Transmission-blocking test, P. berghei/A. stephensi model; type: in vivo; settings: 50 mg/kg oral
Procedure: (§1) (−)-AM1 was also tested in transmission-blocking and prophylactic studies using the P. berghei/A. stephensi model as described, with a few modifications.
For the transmission-blocking test, four BALB/c female mice (18–20 g) were infected i.p. with 10^7 P. berghei-infected red blood cells. Four days later, once confirmed for gametocyte carriage, two mice were treated with 50 mg/kg (−)-AM1, through the oral administration of 500 µL of a methylcellulose suspension, obtained by dissolving a 20 mg/mL ethanol stock solution in 0.5% methylcellulose to a final 9% ethanol concentration. Two mice received the vehicle only as controls. One hour after the treatment, mice were anesthetized and exposed to the bites of 100 sugar-starved female mosquitoes, at 20 °C. Ten days after the blood meal, samples of mosquito midguts from each treatment (n = 40) were dissected and P. berghei oocysts were manually counted using light microscopy at 400× magnification. Oocyst numbers were log-transformed and the geometric means were compared using the Student’s t-test.

[3] = Pharmacokinetics in CD-1 mice after oral administration; type: in vivo, mouse; settings: male, CD-1, mouse, in vivo, po, 10 mg/kg
Procedure: Samples from the pharmacokinetic studies were analyzed under the following conditions: UPLC interfaced with a Premiere XE triple Quadrupole, Waters. A gradient from 2 to 100% (Water, MeOH, 5 mM Ammonium Acetate) over 1.3 min was used in Acquity HSS T3 (dimensions 2.1 by 50 mm, 1.8 µm column, 40 °C temperature, flow rate 0.5 mL/min). Detection was performed in MRM (ESI positive, Q1/Q3 330.16/152.00, Cone Voltage 45 V; Extractor 5 V; Capillary 3.4 kV). The limit of detection was 1 ng/mL. Pharmacokinetic parameters were determined by Non-Compartmental Analysis, using the linear trapezoidal rule and uniform weight.
Pharmacokinetic data were collected in mice by testing the racemate and the enantiomers at the same single dose, and vehicle-utilized for in vivo studies (see composition in paragraph 4.4). Briefly, male CD-1 mice (Charles River Laboratories) weighing 18–22 g received single dose (10 mg/kg) oral administrations of the AM1 racemate and single enantiomers, each dissolved in SSV. For each experiment, twenty-four mice/dose and three mice/time-point were used. Blood samples were collected at eight selected time-points (15, 30 and 60 min; 2, 4, 6, 8 and 24 h) under ethyl ether anaesthesia. The heparinized tubes containing blood samples were immediately placed on ice and centrifuged, and the supernatant collected and frozen at −80 °C prior to analysis. Pharmacokinetic plasma samples (spiked with internal standard) were filtered (Sirocco filter plate, Waters) under vacuum, and 5 µL analysed by LC-MS/MS.

[4] = system: P. berghei; experiment: Prophylactic test, P. berghei/A. stephensi model; type: in vivo; settings: 50 mg/kg per os for 4 days, infection by mosquito bites, days 5–9 post-infection
Procedure: as §1
For the prophylactic test, the experimental drugs were administered at 50 mg/kg per os for 4 consecutive days; 90 min after the last administration, mice were infected by 6–10 infective mosquito bites. Thick and thin Giemsa-stained smears were prepared and examined on days 5–10 post-infection to assess parasite density per μL of blood.

[5] = system: P. falciparum D10 (CQ-S); set-up: method as in PMID 22901673; settings: 72 h incubation, pLDH method, mean of 3 experiments; data already published; cited from earlier work
[6] = Pharmacokinetics in CD-1 mice after oral administration; settings: mouse, in vivo
[7] = system: P. falciparum FCR3 (CQ-R); experiment: In vitro chemosensitivity assay (pLDH), FCR3 strain; type: cell-based; settings: Plasmodium falciparum, FCR3; 72 h incubation, pLDH method, mean of 3 experiments; read-out: P. falciparum IC50, FCR3
[8] = system: P. falciparum TM91C235 (multidrug-resistant); experiment: In vitro chemosensitivity assay (pLDH), TM91C235 strain; type: cell-based; settings: Plasmodium falciparum; 72 h incubation, pLDH method, mean of 3 experiments; read-out: P. falciparum IC50, TM91C235

Clc1ccc2c(NC[C@@H]3CCCN4CCCC[C@H]34)ccnc2c1 [(−)-AM1, 7-chloro-N-(((1S,9aR)-octahydro-1H-quinolizin-1-yl)methyl)quinolin-4-amine]
Metabolic products detected, in vitro microsomes, rat [1]: +
infection intensity, average number of oocysts per midgut ([2]; BALB/c mice, read after 10 days, control 39.17, p = 0.24): 54.11 (CI95 39.77–68.45) oocysts
transmission-blocking activity ([2]; P. berghei/A. stephensi model): does not show transmission-blocking or prophylactic activity
AUC(0-t) [3]: 0.313 µM·h and 103 ng·h/mL
Cmax [3]: 84 nM and 27.6 ng/mL
MRT last [3]: 3.33 h
Tmax [3]: 0.25 h
parasitaemia versus control mice, prophylactic activity [4]: no significant differences in parasitaemia
IC50 [5]: 24 nM
dose proportionality of oral pharmacokinetics [6]: dose proportionality was displayed
IC50 [7]: 23.3 nM
IC50 [8]: 16.7 nM
